# Values joined by “and” are separate entries in the source; they are usually repeats but may differ in a detail not shown here. Identical values can stand only once. Counter-ions that a name gives are not always drawn.
# Assay: Microdose study of 14C-AlphaHGA in healthy volunteers, plasma pharmacokinetics (AMS)
# Assay type: in vivo, human
# Method: In this example, the pharmacokinetics (PK) and oral bioavailability of AlphaHGA in adult healthy volunteers following a single ‘microdose’ in a sequence-randomized, cross-over study design (two periods 7 days apart) was determined. Clinical experiments were conducted with low-level radiolabelled (^14C) AlphaHGA administered intravenously (IV) orally (PO) with serial blood and urine samples were collected for concentration analysis utilizing accelerator mass spectrometry (AMS).
# Accordingly, eight subjects were enrolled into a single dose cross-over study. The subjects were randomly assigned to one of two administration sequences. Subjects that were assigned to sequence 1 received AlphaHGA as an oral preparation first (Period 1) followed by the intravenous (IV) preparation 1 week later (Period 2). Subjects assigned to sequence 2 received AlphaHGA as an intravenous preparation first followed by the oral preparation 1 week later. Four subjects were assigned to sequence 1 and four subjects were assigned to sequence 2.
# For both oral and IV doses subjects were administered 100 nCi (3.7 Kbq) of alphaHGA, which was determined to contain 1.602888×10ˆ6 fmol of ^14C. The specific activity of each dose was 46.619 MBq/mol (or 1.260 mCi/mol). A stock blend of ^14C-labelled alphaHGA was produced prior to the first study period. The actual formulations used for dosing were prepared on the morning prior to each study period. The infusion was a single bolus injection with both the infusion and flush were completed in less than 30 seconds.
# Blood (5 ml) was collected following the administration of AlphaHGA orally or as an IV bolus at the following times: pre-dose (T=0) and 15, 30, 45, 60 minutes, and at 2, 3, 4, 6, 8, 10, 12, 16, 24 hours post-dose. All of the 224 scheduled blood samples were obtained. Blood specimens were drawn by intravenous in-dwelling catheter into 2×10 mL EDTA containing Vacutainer tubes and RBC's separated by centrifugation.
# Plasma specimens (30 μL) were analyzed directly via the combustive procedure without further chemical manipulation. For the purposes of calculating ^14C concentration per volume of plasma, a general carbon content of 45% (dry mass) was applied. The urine was mixed with equal volumes (0.5 mL) of a sucrose carbon diluent solution (200 g/L) and mixed by inversion in a disposable polypropylene centrifuge tube. A 20-μL sample was graphitized for AMS analysis according to standard procedures. The mass fraction of the urine represented in the measured sample was inverted and multipled by the ^14C contents above background derived from the AMS measurement to calculate the ^14C content in the total urine void. A density value of 1 g/mL for urine was assumed to calculate its volume from the recorded masses.
# Pharmacokinetic parameters were estimated by noncompartmental analysis employing the PK software WinNonlin version 4.1 (Pharsight Corporation, Palo Alto, Calif.). Statistical analyses were performed using either WinNonlin 4.1 or SPlus 2000 (Insightful Inc, Seattle, Wash.). All parameter calculations are reported from observed values and not from predicted values. However, observed and predicted values were very close and parameter estimates from both approaches were nearly equal.
# . Values for the following PK parameters were estimated from plasma alphaHGA concentrations:
# Maximum observed concentration (Cmax) and the time to reach Cmax (Tmax), the last quantified concentration (Clast), the time to Clast (Tlast), and time to the first quantified concentration (Tfirst) came from the experimentally observed values.
# Terminal elimination rate constant (λz), was estimated from log-linear regression analysis of the apparent terminal phase of the plasma concentration-time profile. Weighting for the regression was 1/Y^2. The associated plasma half-life (T½) was calculated as T½=ln 2/λz. The point employed for estimating λz, were selected by the WinNonlin default curve stripping algorithm. […]
# [1] = plasma, route iv, individual subjects 1-8, period 1 or 2
# [2] = plasma, route iv, individual subjects 1-8, period 1 or 2, hydrochloride
# [3] = plasma, route po, individual subjects 1-8, period 1 or 2, hydrochloride
compound,measurement,setting,value
"NC(=O)C(N)O (stereo not drawn) [AlphaHGA, α-Hydroxy-glycinamide hydrochloride]",AUC % Extrap,all subjects,less than 20%
same,terminal elimination half-life in the plasma,following both routes of administration,approximately 10 hours
same,absorption,oral administration,rapidly and completely absorbed after oral administration
same,AUC % Extrap,"plasma, Period 1, Max",17.43%
same,AUCTmax,"plasma, Period 1, Max",0.02396 nM·h
same,AUCinf,"plasma, Period 1, Max",0.43166 nM·h
same,AUClast,"plasma, Period 1, Max",0.39184 nM·h
same,Az,"plasma, Period 1, Max",0.084 h⁻¹
same,Clast,"plasma, Period 1, Max",0.00462 nM
same,Cmax,"plasma, Period 1, Max",0.0668 nM
same,T ½,"plasma, Period 1, Max",10.32 h
same,Tmax,"plasma, Period 1, Max",1.00 h
same,AUC % Extrap,"plasma, Period 1, Mean",13.16%
same,AUCTmax,"plasma, Period 1, Mean",0.01354 nM·h
same,AUCinf,"plasma, Period 1, Mean",0.35555 nM·h
same,AUClast,"plasma, Period 1, Mean",0.30901 nM·h
same,Az,"plasma, Period 1, Mean",0.074 h⁻¹
same,Clast,"plasma, Period 1, Mean",0.0034 nM
same,Cmax,"plasma, Period 1, Mean",0.0477 nM
same,T ½,"plasma, Period 1, Mean",9.45 h
same,Tmax,"plasma, Period 1, Mean",0.50 h
same,AUC % Extrap,"plasma, Period 1, Min",9.23%
same,AUCTmax,"plasma, Period 1, Min",0.00422 nM·h
same,AUCinf,"plasma, Period 1, Min",0.27962 nM·h
same,AUClast,"plasma, Period 1, Min",0.24083 nM·h
same,Az,"plasma, Period 1, Min",0.067 h⁻¹
same,Clast,"plasma, Period 1, Min",0.00267 nM
same,Cmax,"plasma, Period 1, Min",0.0337 nM
same,T ½,"plasma, Period 1, Min",8.26 h
same,Tmax,"plasma, Period 1, Min",0.25 h
same,AUC % Extrap,"plasma, Period 2, Max",19.51%
same,AUCTmax,"plasma, Period 2, Max",0.04903 nM·h
same,AUCinf,"plasma, Period 2, Max",0.4907 nM·h
same,AUClast,"plasma, Period 2, Max",0.46442 nM·h
same,Az,"plasma, Period 2, Max",0.118 h⁻¹
same,Clast,"plasma, Period 2, Max",0.00459 nM
same,Cmax,"plasma, Period 2, Max",0.076 nM
same,T ½,"plasma, Period 2, Max",12.80 h
same,Tmax,"plasma, Period 2, Max",2.00 h
same,AUC % Extrap,"plasma, Period 2, Mean",13.94%
same,AUCTmax,"plasma, Period 2, Mean",0.01698 nM·h
same,AUCinf,"plasma, Period 2, Mean",0.3847 nM·h
same,AUClast,"plasma, Period 2, Mean",0.33218 nM·h
same,Az,"plasma, Period 2, Mean",0.073 h⁻¹
same,Clast,"plasma, Period 2, Mean",0.00356 nM
same,Cmax,"plasma, Period 2, Mean",0.0574 nM
same,T ½,"plasma, Period 2, Mean",10.06 h
same,Tmax,"plasma, Period 2, Mean",0.59 h
same,AUC % Extrap,"plasma, Period 2, Min",5.36%
same,AUCTmax,"plasma, Period 2, Min",0.00615 nM·h
same,AUCinf,"plasma, Period 2, Min",0.32388 nM·h
same,AUClast,"plasma, Period 2, Min",0.27076 nM·h
same,Az,"plasma, Period 2, Min",0.054 h⁻¹
same,Clast,"plasma, Period 2, Min",0.00292 nM
same,Cmax,"plasma, Period 2, Min",0.0392 nM
same,T ½,"plasma, Period 2, Min",5.88 h
same,Tmax,"plasma, Period 2, Min",0.25 h
same,AUC % Extrap,"plasma, Route iv, Max",19.51%
same,AUCTmax,"plasma, Route iv, Max",0.02396 nM·h
same,AUCinf,"plasma, Route iv, Max",0.43166 nM·h
same,AUClast,"plasma, Route iv, Max",0.39184 nM·h
same,Az,"plasma, Route iv, Max",0.084 h⁻¹
same,Clast,"plasma, Route iv, Max",0.00462 nM
same,Cmax,"plasma, Route iv, Max",0.0722 nM
same,T ½,"plasma, Route iv, Max",12.80 h
same,Tmax,"plasma, Route iv, Max",0.50 h
same,AUC % Extrap,"plasma, Route iv, Mean",14.04%
same,AUCTmax,"plasma, Route iv, Mean",0.00876 nM·h
same,AUCinf,"plasma, Route iv, Mean",0.36141 nM·h
same,AUClast,"plasma, Route iv, Mean",0.31056 nM·h
same,Az,"plasma, Route iv, Mean",0.070 h⁻¹
same,Clast,"plasma, Route iv, Mean",0.00343 nM
same,Cmax,"plasma, Route iv, Mean",0.0544 nM
same,T ½,"plasma, Route iv, Mean",10.11 h
same,Tmax,"plasma, Route iv, Mean",0.28 h
same,AUC % Extrap,"plasma, Route iv, Min",9.23%
same,AUCTmax,"plasma, Route iv, Min",0.00422 nM·h
same,AUCinf,"plasma, Route iv, Min",0.27962 nM·h
same,AUClast,"plasma, Route iv, Min",0.24083 nM·h
same,Az,"plasma, Route iv, Min",0.054 h⁻¹
same,Clast,"plasma, Route iv, Min",0.00267 nM
same,Cmax,"plasma, Route iv, Min",0.0337 nM
same,T ½,"plasma, Route iv, Min",8.26 h
same,Tmax,"plasma, Route iv, Min",0.25 h
same,AUC % Extrap,"plasma, Route po, Max",16.54%
same,AUCTmax,"plasma, Route po, Max",0.04903 nM·h
same,AUCinf,"plasma, Route po, Max",0.4907 nM·h
same,AUClast,"plasma, Route po, Max",0.46442 nM·h
same,Az,"plasma, Route po, Max",0.118 h⁻¹
same,Clast,"plasma, Route po, Max",0.00459 nM
same,Cmax,"plasma, Route po, Max",0.076 nM
same,T ½,"plasma, Route po, Max",11.29 h
same,Tmax,"plasma, Route po, Max",2.00 h
same,AUC % Extrap,"plasma, Route po, Mean",13.07%
same,AUCTmax,"plasma, Route po, Mean",0.02176 nM·h
same,AUCinf,"plasma, Route po, Mean",0.37884 nM·h
same,AUClast,"plasma, Route po, Mean",0.33063 nM·h
same,Az,"plasma, Route po, Mean",0.076 h⁻¹
same,Clast,"plasma, Route po, Mean",0.00353 nM
same,Cmax,"plasma, Route po, Mean",0.0507 nM
same,T ½,"plasma, Route po, Mean",9.40 h
same,Tmax,"plasma, Route po, Mean",0.81 h
same,AUC % Extrap,"plasma, Route po, Min",5.36%
same,AUCTmax,"plasma, Route po, Min",0.01199 nM·h
same,AUCinf,"plasma, Route po, Min",0.31704 nM·h
same,AUClast,"plasma, Route po, Min",0.26699 nM·h
same,Az,"plasma, Route po, Min",0.061 h⁻¹
same,Clast,"plasma, Route po, Min",0.00286 nM
same,Cmax,"plasma, Route po, Min",0.0357 nM
same,T ½,"plasma, Route po, Min",5.88 h
same,Tmax,"plasma, Route po, Min",0.50 h
same,Tfirst,[1],0.25 h
same,Tlast,[1],24 h
same,AUCTmax,[2],0.00422 nM·h and 0.00683 nM·h and 0.00902 nM·h and 0.00647 nM·h and 0.02396 nM·h and 0.00615 nM·h and 0.00528 nM·h and 0.00813 nM·h
same,AUCinf,[2],0.27962 nM·h and 0.32862 nM·h and 0.36703 nM·h and 0.32974 nM·h and 0.43166 nM·h and 0.35514 nM·h and 0.39463 nM·h and 0.40482 nM·h
same,AUClast,[2],0.24083 nM·h and 0.29153 nM·h and 0.32782 nM·h and 0.29111 nM·h and 0.39184 nM·h and 0.28587 nM·h and 0.32585 nM·h and 0.32966 nM·h
same,Clast,[2],0.00267 nM and 0.00304 nM and 0.00292 nM and 0.00299 nM and 0.00334 nM and 0.00375 nM and 0.00462 nM and 0.0041 nM
same,Cmax,[2],0.0337 nM and 0.0546 nM and 0.0722 nM and 0.0517 nM and 0.0668 nM and 0.0492 nM and 0.0422 nM and 0.065 nM
same,T1/2,[2],10.07 h and 8.46 h and 9.31 h and 8.96 h and 8.26 h and 12.80 h and 10.32 h and 12.71 h
same,Tmax,[2],0.25 h and 0.5 h
same,λz,[2],0.069 h⁻¹ and 0.082 h⁻¹ and 0.075 h⁻¹ and 0.077 h⁻¹ and 0.084 h⁻¹ and 0.054 h⁻¹ and 0.067 h⁻¹ and 0.055 h⁻¹
same,Tlast,"plasma, route po, individual subjects 1-8, period 1 or 2",24 h
same,AUCTmax,[3],0.0122 nM·h and 0.03149 nM·h and 0.01712 nM·h and 0.04903 nM·h and 0.02379 nM·h and 0.01199 nM·h and 0.01353 nM·h and 0.01489 nM·h
same,AUCinf,[3],0.32094 nM·h and 0.4907 nM·h and 0.31704 nM·h and 0.41499 nM·h and 0.40394 nM·h and 0.32388 nM·h and 0.3913 nM·h and 0.36795 nM·h
same,AUClast,[3],0.28221 nM·h and 0.46442 nM·h and 0.26699 nM·h and 0.34636 nM·h and 0.34963 nM·h and 0.27076 nM·h and 0.34145 nM·h and 0.32318 nM·h
same,Clast,[3],0.00286 nM and 0.0031 nM and 0.00341 nM and 0.00459 nM and 0.00395 nM and 0.00326 nM and 0.00376 nM and 0.0033 nM
same,Cmax,[3],0.0406 nM and 0.076 nM and 0.0357 nM and 0.0392 nM and 0.0494 nM and 0.0479 nM and 0.0581 nM and 0.0584 nM
same,T1/2,[3],9.39 h and 5.88 h and 10.18 h and 10.36 h and 9.53 h and 11.29 h and 9.19 h and 9.40 h
same,Tfirst,[3],0.25 hr (7×) and 0.5 hr
same,Tmax,[3],0.5 h and 0.75 h and 1 h and 2 h
same,λz,[3],0.074 hr^−1 (2×) and 0.118 hr^−1 and 0.068 hr^−1 and 0.067 hr^−1 and 0.073 hr^−1 and 0.061 hr^−1 and 0.075 hr^−1

# From patent publication US20080076824A1, “Compounds That Inhibit Replication Of Human Immunodeficiency Virus” (priority 2004, published 2008)
